Test results as given in patent US7803930B2, “Antisense modulation of apolipoprotein B-expression” (Isis Pharmaceuticals, Inc., priority 2002, dated 2010).
In the oligonucleotide strings, read from the 5' end, every base follows the letter of its sugar. An asterisk marks phosphorothioate; unmarked linkages are phosphodiester. Other units and linkages are bracketed, terminal groups are in braces. A string of capitals states the bases alone. e = 2'-O-(2-methoxyethyl) (MOE); [5mC] = 5-methylcytosine; d = 2'-deoxy (DNA)

system: human apolipoprotein B mRNA; experiment: Inhibition of human apolipoprotein B mRNA levels in HepG2 cells, quantitative real-time PCR; format: cell-based; conditions: HepG2 cells treated with 150 nM of compound; averages from two experiments; quantitative real-time PCR
Summary of the method: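 Apolipoprotein B transcript was quantified by one-step TaqMan RT-PCR, normalized to GAPDH or RiboGreen RNA, and expressed as percent inhibition against an untreated-sample standard curve. HepG2 cells were harvested 16-24 h after oligonucleotide exposure, which was delivered with 3.75 μg/mL Lipofectin over 4-7 h at 80% confluency.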

Substance | % INHIB (inhibition of human apolipoprotein B mRNA levels) [%]
271036 (eA*eA*eG*eA*eG*dG*d[5mC]*d[5mC]*d[5mC]*dT*d[5mC]*dT*dA*dG*d[5mC]*eT*eG*eT*eA*eA; antisense) [compound 271036] | 95
281590 (e[5mC]*eT*eG*e[5mC]*eT*dT*d[5mC]*d[5mC]*d[5mC]*dT*dT*d[5mC]*dT*dG*dG*eA*eA*eT*eG*eG; antisense) [compound 281590] | 84
281616 (antisense eG*eT*e[5mC]*eT*eA*dG*dA*dA*d[5mC]*dA*d[5mC]*d[5mC]*d[5mC]*dA*dG*eG*eA*eG*eA*eG) [compound 281616] | 66
270993 (antisense eT*eT*eG*eA*eA*dG*d[5mC]*dG*dA*dT*d[5mC]*dA*d[5mC]*dA*d[5mC]*eT*eG*e[5mC]*e[5mC]*e[5mC]) [compound 270993] | 69
281603 (antisense eT*eA*eT*e[5mC]*eT*dG*d[5mC]*d[5mC]*dT*dG*dT*dG*dA*dA*dG*eG*eA*e[5mC]*eT*e[5mC]) [compound 281603] | 82
271001 (antisense e[5mC]*e[5mC]*e[5mC]*eA*eT*dG*dG*dT*dA*dG*dA*dA*dT*dT*dT*eG*eG*eA*e[5mC]*eA) [compound 271001] | 53
271010 (antisense eT*eG*eT*e[5mC]*eA*d[5mC]*dA*dA*d[5mC]*dT*dT*dA*dG*dG*dT*eG*eG*e[5mC]*e[5mC]*e[5mC]) [compound 271010] | 57
271035 (eT*e[5mC]*eG*eT*eA*d[5mC]*dT*dG*dT*dG*d[5mC]*dT*d[5mC]*d[5mC]*d[5mC]*eA*eG*eA*eG*eG; antisense) [compound 271035] | 23
281611 (antisense e[5mC]*eT*eG*eT*e[5mC]*d[5mC]*dT*d[5mC]*dT*d[5mC]*dT*d[5mC]*dT*dG*dG*eA*eG*e[5mC]*eT*e[5mC]) [compound 281611] | 93
281613 (antisense eG*eT*eA*eT*eG*dG*dA*dA*dA*dT*dA*dA*d[5mC]*dA*d[5mC]*e[5mC]*e[5mC]*eT*eT*eG) [compound 281613] | 70
281637 (antisense eA*eG*eA*eG*e[5mC]*d[5mC]*dT*dG*dA*dA*dG*dA*d[5mC]*dT*dG*eA*e[5mC]*eT*eT*e[5mC]) [compound 281637] | 74
281631 (antisense eT*e[5mC]*eA*eA*e[5mC]*dG*dG*d[5mC]*dA*dT*d[5mC]*dT*d[5mC]*dT*d[5mC]*eA*eT*e[5mC]*eT*e[5mC]) [compound 281631] | 88
270996 (antisense e[5mC]*e[5mC]*eT*e[5mC]*eT*d[5mC]*dA*dG*d[5mC]*dT*d[5mC]*dA*dG*dT*dA*eA*e[5mC]*e[5mC]*eA*eG) [compound 270996] | 0
301039 (eT*eG*eG*eT*eG*d[5mC]*d[5mC]*dA*dG*d[5mC]*dT*dT*dT*dG*dG*eT*eG*e[5mC]*eA*eG; antisense) [compound 301039] | 73
281609 (antisense e[5mC]*eG*eT*eT*eG*dG*dA*dG*dT*dA*dA*dG*d[5mC]*dG*d[5mC]*e[5mC]*eT*eG*eA*eG) [compound 281609] | 70

same assay, conditions: HepG2 cells; 10 nM; 24 hour (Table 41)

Substance | % Change in apolipoprotein B mRNA expression
332785 (antisense GCTTCGCACC; linkages s4 o1 s4 (s phosphorothioate, o phosphodiester), sugars by position and methylation of C not given here; 2'-MOE wings flank a DNA gap) [compound 332785] | +5%

same assay, conditions: HepG2 cells; 50 nM; 24 hour (Table 41)

Substance | % Change in apolipoprotein B mRNA expression [%]
332785 (antisense GCTTCGCACC; linkages s4 o1 s4 (s phosphorothioate, o phosphodiester), sugars by position and methylation of C not given here; 2'-MOE wings flank a DNA gap) [compound 332785] | −2

same assay, conditions: HepG2 cells; 150 nM; 24 hour (Table 41)

Substance | % Change in apolipoprotein B mRNA expression [%]
332785 (antisense GCTTCGCACC; linkages s4 o1 s4 (s phosphorothioate, o phosphodiester), sugars by position and methylation of C not given here; 2'-MOE wings flank a DNA gap) [compound 332785] | −4

same assay, conditions: HepG2 cells; human apolipoprotein B mRNA; oligonucleotides targeting genomic sequence SEQ ID NO 334; averages from two experiments

Substance | % INHIB [%]
301189 (antisense eT*eG*eT*eG*eT*d[5mC]*dA*d[5mC]*dA*dA*d[5mC]*dT*dA*dT*dG*eG*eT*eA*eA*eA) [compound 301189] | 63
301151 (e[5mC]*e[5mC]*eT*e[5mC]*eT*d[5mC]*d[5mC]*dA*dA*dT*d[5mC]*dT*dG*dT*dA*eG*eA*e[5mC]*e[5mC]*e[5mC]; antisense) [compound 301151] | 28
301056 (e[5mC]*eA*eG*eT*eT*dG*dA*dA*dA*dT*dG*d[5mC]*dA*dG*d[5mC]*eT*eA*eA*eT*eG; antisense) [compound 301056] | 35
301216 (antisense e[5mC]*eT*eG*eG*eA*dG*dA*dG*dG*dA*d[5mC]*dT*dA*dA*dA*e[5mC]*eA*eG*eA*eG) [compound 301216] | 49
301140 (eG*e[5mC]*eA*eT*eA*d[5mC]*dA*dA*dG*dT*d[5mC]*dA*d[5mC]*dA*dT*eG*eA*eG*eG*eT; antisense) [compound 301140] | 34
301124 (eT*eT*eT*e[5mC]*e[5mC]*dA*dA*dT*dG*dA*d[5mC]*d[5mC]*dT*dG*d[5mC]*eA*eT*eT*eG*eA; antisense) [compound 301124] | 48
301082 (antisense e[5mC]*eT*eA*eT*eG*d[5mC]*dA*dG*dA*dG*dT*dG*dT*dG*dG*eT*e[5mC]*eT*eT*eG) [compound 301082] | 41
301051 (eG*eA*eT*eG*e[5mC]*d[5mC]*dT*dT*dA*d[5mC]*dT*dT*dG*dG*dA*e[5mC]*eA*eG*eA*e[5mC]; antisense) [compound 301051] | 27
301107 (antisense eT*eT*e[5mC]*eT*eT*dA*dG*dT*dA*d[5mC]*d[5mC]*dT*dG*dG*dA*eA*eG*eA*eT*eG) [compound 301107] | 23
301187 (antisense eG*e[5mC]*eT*e[5mC]*eT*d[5mC]*dT*d[5mC]*dT*dG*d[5mC]*d[5mC]*dA*d[5mC]*dT*e[5mC]*eT*eG*eA*eT) [compound 301187] | 47
301064 (e[5mC]*eA*eG*eT*eG*d[5mC]*d[5mC]*dT*d[5mC]*dT*dG*dG*dG*dA*d[5mC]*e[5mC]*e[5mC]*e[5mC]*eA*e[5mC]; antisense) [compound 301064] | 60
301066 (eG*eA*e[5mC]*e[5mC]*eT*d[5mC]*d[5mC]*d[5mC]*d[5mC]*dA*dG*d[5mC]*d[5mC]*dA*d[5mC]*eG*eT*eG*eG*eA; antisense) [compound 301066] | 61
301203 (antisense eG*eT*eT*e[5mC]*e[5mC]*d[5mC]*dA*dA*dA*dA*d[5mC]*dT*dG*dT*dA*eT*eA*eG*eG*eA) [compound 301203] | 36
301119 (antisense eA*e[5mC]*eA*eT*eA*d[5mC]*dA*dA*dA*dT*dG*dG*d[5mC]*dA*dA*eT*eA*eG*eG*e[5mC]) [compound 301119] | 33
301108 (antisense e[5mC]*eA*eT*eT*eA*dG*dA*dT*dA*d[5mC]*d[5mC]*dT*dG*dG*dA*e[5mC]*eA*e[5mC]*e[5mC]*eT) [compound 301108] | 29

same assay, conditions: Table 1; HepG2 cells, 150 nM; averages from two experiments

Substance | % INHIB [%]
147817 (antisense eG*e[5mC]*eA*eT*eG*dG*dT*d[5mC]*d[5mC]*d[5mC]*dA*dA*dG*dG*dA*eT*eG*eG*eT*e[5mC]) [compound 147817] | 0
147815 (antisense eT*eG*eG*e[5mC]*e[5mC]*dT*dA*d[5mC]*d[5mC]*dA*dG*dA*dG*dA*d[5mC]*eA*eG*eG*eT*eA) [compound 147815] | 45

same assay, conditions: Table 11 gene walk; HepG2 cells, 50 nM; averages from two experiments

Substance | % INHIB 50 nm [%]
308599 (antisense eA*eG*e[5mC]*e[5mC]*eT*d[5mC]*dA*dG*dT*d[5mC]*dT*dG*d[5mC]*dT*dT*e[5mC]*eG*e[5mC]*eA*e[5mC]) [compound 308599] | 79
308615 (e[5mC]*eT*eT*eT*eT*dA*dG*dG*dT*dT*dA*d[5mC]*d[5mC]*dA*dG*e[5mC]*e[5mC]*eA*e[5mC]*eA; antisense) [compound 308615] | 45

same assay, conditions: Table 11 gene walk; HepG2 cells, 150 nM; averages from two experiments

Substance | % INHIB 150 nm [%]
308599 (antisense eA*eG*e[5mC]*e[5mC]*eT*d[5mC]*dA*dG*dT*d[5mC]*dT*dG*d[5mC]*dT*dT*e[5mC]*eG*e[5mC]*eA*e[5mC]) [compound 308599] | 94
308615 (e[5mC]*eT*eT*eT*eT*dA*dG*dG*dT*dT*dA*d[5mC]*d[5mC]*dA*dG*e[5mC]*e[5mC]*eA*e[5mC]*eA; antisense) [compound 308615] | 85

same assay, conditions: Table 12; HepG2 cells, 150 nM; averages from two experiments

Substance | % INHIB [%]
271040 (eG*eT*e[5mC]*e[5mC]*eT*dT*d[5mC]*dA*dT*dA*dT*dT*dT*dG*d[5mC]*e[5mC]*eA*eT*e[5mC]*eT; antisense) [compound 271040] | 0

same assay, conditions: Table 15; HepG2 cells, 150 nM; averages from two experiments

Substance | % INHIB [%]
301227 (antisense eT*eA*eT*eT*e[5mC]*dT*dG*dT*dT*dA*d[5mC]*dT*dT*dA*dA*eA*eT*e[5mC]*eA*e[5mC]) [compound 301227] | 23

same assay, conditions: Table 17 variable gap; HepG2 cells, 50 nM; averages from three experiments

Substance | % INHIB 50 nm [%]
308636 (GCCTCAGTCTGCTTCGCGCC; all C 5-methyl, all phosphorothioate, sugars by position not given here; further chemistry not fully specified) [compound 308636] | 81
308663 (antisense AGTCTGCTTCGCGCCTTCTG; 8-10-2 2'-MOE gapmer, phosphorothioate, chemistry not fully specified) [compound 308663] | 44

same assay, conditions: Table 17 variable gap; HepG2 cells, 150 nM; averages from three experiments

Substance | % INHIB 150 nm [%]
308636 (GCCTCAGTCTGCTTCGCGCC; all C 5-methyl, all phosphorothioate, sugars by position not given here; further chemistry not fully specified) [compound 308636] | 91
308663 (antisense AGTCTGCTTCGCGCCTTCTG; 8-10-2 2'-MOE gapmer, phosphorothioate, chemistry not fully specified) [compound 308663] | 84
